Data reported in patent US20140343008A1, “HEPATITIS C TREATMENT” (Gilead Pharmasset LLC, priority 2013, published 2014).
Read-outs that look alike come from different tables or passages of the source. Each block holds one molecule with its values, some of them ahead of it.

Experiments:
[1] = Phase I pharmacokinetic study of the combination of Compound I and sofosbuvir in healthy volunteers; assay type: in vivo, human; conditions: for Ctau, Mean / Cmax / AUC / AUC(0-inf) / AUC(0-t): n = 18; for Cmax / AUC / AUC(0-inf) / AUC(0-t): both sexes, human; for AUC: read-out: AUCtau, Mean; for AUC(0-inf): healthy volunteers, read-out: AUCinf, Mean; for AUC(0-t): read-out: AUClast, Mean
Text: This example studied the pharmacokinetics (PK) of the combination of Compound I and sofosbuvir (SOF), along with two metabolites of SOF, Metabolite I and II, in healthy volunteers, as part of a Phase I clinical study for Compound I.
This was a randomized, open label, single-center, multiple-dose study that enrolled Healthy males and non-pregnant, non-lactating females from 18 to 45 years old. The duration of the study was up to 38 days, and duration of the treatment was 28 days.
Additional specific exclusion criteria included, (1) use of over the counter (OTC) or prescribed medications that affect gastric pH (i.e., antacids, H2 receptor antagonists (H2RAs), and/or proton-pump inhibitors (PPIs)) 28 days prior to baseline and (2) history of severe peptic ulcer disease, GERD, or other stomach acid diseases requiring prolonged (>6 months) medication or surgical therapy to modify gastric pH. […]
Plasma concentrations and pharmacokinetic parameters for the compounds were listed and summarized using descriptive statistics by treatment. In addition, an analysis of variance (ANOVA) using a mixed-effects model with treatment, period, sequence as fixed effects and subject within sequence as a random effect were fitted to the natural logarithmic transformation of PK parameters (AUCinf, AUClast, and Cmax).
The 90% confidence intervals were constructed for the ratio of geometric least-squares means of primary PK parameters for each of the test treatments (as shown in Table 1).

[2] = target: P-gp (Homo sapiens, UniProt P08183); experiment: In vitro drug transporter inhibition, P-gp; assay type: in vitro ADME
Text: (§1) Based on the results of Example 1, it was contemplated that Compound I increased the exposure of sofosbuvir by inhibiting the activities of one or more drug transporters. This example carried out in vitro experiments to test whether Compound I inhibited any of the potentially relevant drug transporters, […], BCRP and P-gp.

[3] = target: T1, BCRP (Homo sapiens, UniProt Q9UNQ0); experiment: In vitro drug transporter inhibition, BCRP; assay type: in vitro ADME
T1 sequence (Q9UNQ0 1-655): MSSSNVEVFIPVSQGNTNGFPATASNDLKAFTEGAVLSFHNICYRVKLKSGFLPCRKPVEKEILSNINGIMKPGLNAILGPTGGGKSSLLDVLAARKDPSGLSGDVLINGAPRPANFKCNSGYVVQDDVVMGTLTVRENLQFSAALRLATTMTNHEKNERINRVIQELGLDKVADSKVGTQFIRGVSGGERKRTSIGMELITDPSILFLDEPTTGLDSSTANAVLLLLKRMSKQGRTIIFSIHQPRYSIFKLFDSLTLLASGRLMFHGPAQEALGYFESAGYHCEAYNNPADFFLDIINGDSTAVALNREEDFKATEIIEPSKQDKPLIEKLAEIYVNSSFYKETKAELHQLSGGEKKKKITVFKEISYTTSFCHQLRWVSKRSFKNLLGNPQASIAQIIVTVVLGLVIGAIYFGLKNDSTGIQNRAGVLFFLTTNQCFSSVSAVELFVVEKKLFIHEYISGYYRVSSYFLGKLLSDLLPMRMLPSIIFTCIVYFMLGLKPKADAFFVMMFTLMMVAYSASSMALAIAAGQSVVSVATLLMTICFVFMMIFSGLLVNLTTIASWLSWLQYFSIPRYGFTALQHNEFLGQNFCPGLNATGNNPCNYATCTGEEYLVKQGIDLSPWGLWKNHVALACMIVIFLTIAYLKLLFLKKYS
Text: as §1

[4] = test system: human colon carcinoma cell line (caco-2); experiment: Bidirectional permeability of sofosbuvir in caco-2 monolayers; conditions: for Papp of sofosbuvir, Forward, Average / Papp of sofosbuvir, Forward, Repat 2 / Papp of sofosbuvir, Forward, Repeat 1 / Papp of sofosbuvir, Reverse, Average / Papp of sofosbuvir, Reverse, Repat 2 / Papp of sofosbuvir, Reverse, Repeat 1 / effect of coincubation on permeability/efflux of sofosbuvir, fold increase: human, Caco-2, 120 min, pH 7.4
Procedure: (§2) Caco-2 human intestinal epithelial cell monolayers cultured for twenty-one to twenty-eight days were plated on 12 well Transwell® dual chamber plates.
(§3) Assays were run in duplicate (n=2) in one to two separate experiments. Assay buffer at pH 7.4 was placed in both chambers. Hanks buffer with 1% BSA was used in receiver compartment.
(§4) Apical side was dosed for apical-to-basolateral (A to B) assessment. Basolateral side was dosed for basolateral-to-apical (B to A) assessment. Donor side was sampled at time points of 0 and 120 minutes.
(§5) Receiver side was sampled at time points: 60 and 120 minutes.
(§6) The apparent permeability, Papp, and % recovery were calculated as follows: […]
(§7) Where, dR/dt is the slope of the cumulative concentration in the receiver compartment versus time in μM/s based on receiver concentrations measured at 60 and 120 minutes. Vr and Vd are the volumes in the receiver and donor compartment in cm^3, respectively. A is the area of the cell monolayer (1.12 cm^2). D0 and D120 are the measured donor concentrations at the beginning and end of the experiment, respectively. R120 is the receiver concentration at the end of the experiment (120 minutes).

[5] = as above; conditions: human, Caco-2, pH 7.4
Procedure: as §2, §3, §4, §5, §6, §7

[6] = SOF + Comp I versus Comp I alone
[7] = plasma, oral, 100 mg, Comp I alone
[8] = in vivo, plasma analyte after SOF + Comp I
[9] = in vivo, plasma analyte after SOF alone
[10] = co-administration with Compound I versus SOF alone

Sequence of P-gp (P08183 whole entry): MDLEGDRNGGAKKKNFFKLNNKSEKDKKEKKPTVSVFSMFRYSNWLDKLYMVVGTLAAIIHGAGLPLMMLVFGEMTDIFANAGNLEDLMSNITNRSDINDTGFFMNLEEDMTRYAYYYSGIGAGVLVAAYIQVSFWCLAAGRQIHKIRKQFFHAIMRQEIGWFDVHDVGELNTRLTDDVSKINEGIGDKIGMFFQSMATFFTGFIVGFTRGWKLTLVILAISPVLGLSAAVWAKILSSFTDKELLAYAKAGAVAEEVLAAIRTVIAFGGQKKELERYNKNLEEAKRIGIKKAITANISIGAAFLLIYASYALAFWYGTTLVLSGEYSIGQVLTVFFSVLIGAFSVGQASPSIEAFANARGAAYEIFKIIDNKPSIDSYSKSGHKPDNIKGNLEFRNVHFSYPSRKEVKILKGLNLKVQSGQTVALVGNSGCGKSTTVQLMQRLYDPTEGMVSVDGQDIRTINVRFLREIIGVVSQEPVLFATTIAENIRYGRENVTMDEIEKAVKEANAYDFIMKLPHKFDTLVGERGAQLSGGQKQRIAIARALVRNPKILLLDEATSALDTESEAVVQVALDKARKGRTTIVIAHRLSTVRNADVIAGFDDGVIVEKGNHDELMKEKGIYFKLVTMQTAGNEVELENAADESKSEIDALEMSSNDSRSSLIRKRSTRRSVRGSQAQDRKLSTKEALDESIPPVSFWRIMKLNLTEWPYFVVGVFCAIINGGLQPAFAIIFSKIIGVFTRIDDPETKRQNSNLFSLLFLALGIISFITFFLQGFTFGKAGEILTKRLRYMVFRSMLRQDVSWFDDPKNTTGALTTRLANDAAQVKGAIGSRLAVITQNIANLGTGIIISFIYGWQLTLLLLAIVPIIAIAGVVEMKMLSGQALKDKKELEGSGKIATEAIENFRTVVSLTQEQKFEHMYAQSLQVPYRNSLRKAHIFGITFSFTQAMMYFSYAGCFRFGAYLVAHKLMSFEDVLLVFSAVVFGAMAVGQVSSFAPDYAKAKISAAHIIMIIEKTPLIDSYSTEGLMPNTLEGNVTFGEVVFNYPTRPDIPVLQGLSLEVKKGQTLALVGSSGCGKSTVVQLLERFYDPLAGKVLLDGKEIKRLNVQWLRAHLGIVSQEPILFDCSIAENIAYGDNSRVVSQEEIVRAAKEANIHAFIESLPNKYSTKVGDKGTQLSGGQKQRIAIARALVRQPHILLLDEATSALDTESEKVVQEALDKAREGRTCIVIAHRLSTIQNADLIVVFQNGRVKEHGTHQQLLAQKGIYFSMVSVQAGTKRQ

Ctau, Mean ([1]; Comp I alone): 113 ng/mL
AUCtau, % GMR [1, 6]: 112%
Cmax, % GMR [1, 6]: 106%
Ctau, % GMR [1, 6]: 118%
Ctau, Mean ([1]; SOF + Comp I): 135 ng/mL
Cmax [1, 7]: 963 ng/mL
AUC [1, 7]: 7690 ng·h/mL
Cmax ([1]; plasma, oral, Compound I analyte, SOF + Comp I): 1020 ng/mL
AUC ([1]; plasma, oral, SOF + Comp I): 8600 ng·h/mL
inhibition of P-gp [2]: marked inhibition
inhibition of BCRP [3]: not on other tested transporters
Papp of sofosbuvir, Forward, Average [4]: 0.66 10^−6 cm/s
Papp of sofosbuvir, Forward, Repat 2 [4]: 0.6 10^−6 cm/s
Papp of sofosbuvir, Forward, Repeat 1 [4]: 0.73 10^−6 cm/s
Papp of sofosbuvir, Reverse, Average [4]: 7.39 10^−6 cm/s
Papp of sofosbuvir, Reverse, Repat 2 [4]: 7.56 10^−6 cm/s
Papp of sofosbuvir, Reverse, Repeat 1 [4]: 7.22 10^−6 cm/s
effect of coincubation on permeability/efflux of sofosbuvir, fold increase [4]: ~4 fold
Molecule: COC[C@H]1C[C@@H](c2ncc(-c3ccc4c(c3)COc3cc5c(ccc6nc([C@@H]7CC[C@H](C)N7C(=O)[C@@H](NC(=O)OC)C(C)C)[nH]c65)cc3-4)[nH]2)N(C(=O)[C@H](NC(=O)OC)c2ccccc2)C1 [Compound I, methyl {(2S)-1-[(2S,5S)-2-(9-{2-[(2S,4S)-1-{(2R)-2-[(methoxycarbonyl)amino]-2-phenylacetyl}-4-(methoxymethyl)pyrrolidin-2-yl]-1H-imidazol-5-yl}-1,11-dihydroisochromeno[4′,3′:6,7]naphtho[1,2-d]imidazol-2-yl)-5-methylpyrrolidin-1-yl]-3-methyl-1-oxobutan-2-yl}carbamate]

Papp of sofosbuvir, Forward, Average [4]: 0.3 10^−6 cm/s
Papp of sofosbuvir, Forward, Repat 2 [4]: 0.28 10^−6 cm/s
Papp of sofosbuvir, Forward, Repeat 1 [4]: 0.31 10^−6 cm/s
Papp of sofosbuvir, Reverse, Average [4]: 6.93 10^−6 cm/s
Papp of sofosbuvir, Reverse, Repat 2 [4]: 6.82 10^−6 cm/s
Papp of sofosbuvir, Reverse, Repeat 1 [4]: 7.05 10^−6 cm/s
effect of coincubation on permeability/efflux of sofosbuvir, fold increase [4]: ~2 fold
Molecule: CC1=CC[C@H](C(=O)N(c2cc(C#CC(C)(C)C)sc2C(=O)O)[C@H]2CC[C@](O)(CO[C@H]3CCOC3)CC2)CC1 [Compound III, 5-(3,3-dimethylbutyn-1-yl)-3-[(cis-4-hydroxy-4-{[(3S)-tetrahydrofuran-3-yloxy]methyl}cyclohexyl) {[(1R)-4-methylcyclohex-3-en-1-yl]carbonyl}amino]thiophene-2-carboxylic acid]

Papp of sofosbuvir, Forward, Average [4]: 11.1 10^−6 cm/s
Papp of sofosbuvir, Forward, Repat 2 [4]: 0.92 10^−6 cm/s
Papp of sofosbuvir, Forward, Repeat 1 [4]: 0.46 10^−6 cm/s
Papp of sofosbuvir, Reverse, Average [4]: 1.09 10^−6 cm/s
Papp of sofosbuvir, Reverse, Repat 2 [4]: 11.7 10^−6 cm/s
Papp of sofosbuvir, Reverse, Repeat 1 [4]: 10.5 10^−6 cm/s
effect of coincubation on permeability/efflux of sofosbuvir, fold increase [4]: ~2 fold
Molecule: Fc1ccccc1-c1nc2ccn(Cc3ccc(-c4ccc(C(F)(F)F)cc4C(F)(F)F)nn3)cc-2n1 [Compound V, 5-((6-(2,4-bis(trifluoromethyl)phenyl)pyridazin-3-yl)methyl)-2-(2-fluorophenyl)-5H-imidazo[4,5-c]pyridine]

permeability through caco-2 cells (in words) ([4]; Caco-2): high permeability
Molecule: CC(C)NCC(O)COc1cccc2ccccc12 (stereo not shown) [Propranolol, reference compound]

Molecule: CC(C)OC(=O)[C@H](C)N[P@](=O)(OC[C@H]1O[C@@H](n2ccc(=O)[nH]c2=O)[C@](C)(F)[C@@H]1O)Oc1ccccc1 [Sofosbuvir, (S)-isopropyl 2-(((S)-(((2R,3R,4R,5R)-5-(2,4-dioxo-3,4-dihydropyrimidin-1(2H)-yl)-4-fluoro-3-hydroxy-4-methyltetrahydrofuran-2-yl)methoxy)(phenoxy)phosphoryl)amino)propanoate]
AUCinf, % GMR ([1]; SOF + Comp I versus SOF alone): 238%
AUClast, % GMR ([1]; SOF + Comp I versus SOF alone): 238%
Cmax, % GMR ([1]; SOF + Comp I versus SOF alone): 181%
AUC(0-inf) ([1]; in vivo, plasma analyte after SOF + Comp I (100 mg)): 2860 ng·h/mL
Cmax [1, 8]: 1670 ng/mL
AUC(0-t) [1, 8]: 2850 ng·h/mL
AUC(0-inf) [1, 9]: 1200 ng·h/mL
Cmax [1, 9]: 964 ng/mL
AUC(0-t) [1, 9]: 1200 ng·h/mL
AUC increase by Compound I [1, 10]: ~2.4 fold
Cmax increase by Compound I [1, 10]: ~1.8 fold
Papp A→B at 120 min, 10 μM [5]: 0.25 ×10⁻⁶ cm/s
efflux ratio at 120 min, 10 μM [5]: 43.6
permeability through caco-2 cells (in words) ([4]; sofosbuvir alone at 10 μM, control compounds for acceptance criteria): low permeability

Molecule: C[C@H]1O[C@@H](O[C@H]2[C@@H](O)C[C@H](O[C@H]3[C@@H](O)C[C@H](O[C@H]4CC[C@@]5(C)[C@H](CC[C@@H]6[C@@H]5C[C@@H](O)[C@]5(C)[C@@H](C7=CC(=O)OC7)CC[C@]65O)C4)O[C@@H]3C)O[C@@H]2C)C[C@H](O)[C@@H]1O [digoxin, reference compound]
transport of control transport substrate ([4]; control): Transport was observed

permeability through caco-2 cells (in words) ([4]; Caco-2): indicated appropriate membrane integrity
Molecule: lucifer yellow [reference compound]
